We go through 3 compounds from article PMC11303563 (Communications Medicine, 2024).

“And” between values parts separate entries of the source, which are not always exact repeats. Equal entries are not always repeated.

Data set [1] is described as follows: In vitro blood-brain barrier permeability assay (BBB kit RBT-24H). The data set is classed as in vitro ADME, rat.
Experimental: Therefore, we tested BBB transparency in vitro using the BBB kit RBT-24H (PharmaCo-Cell)[35]. […] Blood-brain barrier permeability assay The blood-brain barrier (BBB) transparency of TH analogs was assessed in vitro using RBT-24H (PharmaCo-Cell)[5] according to the manufacturer 's protocol. […] After 30 min, the assay buffer in the wells mimicking the abluminal side was collected, and the concentration of the compounds was measured using liquid chromatography-mass spectrometry (LC-MS). […] These tips were preconditioned with 20 μL of acetonitrile and 20 μL of 0.1% TFA in purified water. 100 μL of the samples were loaded onto the preconditioned tips, washed with 200 μL of DW, and then eluted with 10 μL of acetonitrile. Triazine (1% vol/vol) was added to the eluent as an internal standard. […] 3 μm; Imtakt, Kyoto, Japan). All the experiments were performed using an Ultimate 3000 UHPLC system coupled with a Q Exactive Plus Orbitrap mass spectrometer (Thermo Fisher Scientific). […] Data were shown as mean ± standard deviation (n=3).
Data set [2] has as its system THRβ. As to conditions: cited from earlier work.
In data set [3] the test system is high-fat diet (HFD)-induced obesity model mice. Nature of the data set: Body weight of high-fat diet-induced obesity model mice. The class given is in vivo, C57BL/6J mice. To be noted: for Body weight, 95.00% CI of diff. ND vs. treated / Body weight, Mean Diff. ND vs. treated: ND group as comparator; for Body weight, 95.00% CI of diff. ND vs. treated / Body weight, Mean Diff. ND vs. treated / Body weight, 95.00% CI of diff. Vehicle vs. treated / Body weight, Mean Diff. Vehicle vs. treated: Tukey's multiple comparisons test; for Body weight, Mean Diff. Vehicle vs. treated / Body weight, group mean (Fig. 3a) / Body weight, individual mice (Fig. 3a): in g (unit assumed); for Body weight, group mean (Fig. 3a): n 10. Details: Body weight, Mean Diff. ND vs. treated: unit not given here. Here is the method: The injection was given 6 h after light on. Food consumption and body weights were measured weekly. Food and water were provided to the animals ad libitum. The animals were treated according to the guidelines of Nagoya University, and all experimental procedures were approved by the Animal Experiment Committee of Nagoya University (A210715-003).
(§1) Epididymal adipose tissue was weighed.
(§2) Fig. 3 Effects of intraperitoneal injection of TH analogs on body weight and deposition of visceral fat. […] After three weeks of injection, body weight (a), and weight of the epididymal adipose tissue (b) were measured.

The test system is the same in data set [4]. Nature of the data set: Weight of epididymal adipose tissue (visceral fat) in HFD mice. The class given is in vivo, C57BL/6J mice. As to conditions: for Fig. 3b (weight of epididymal adipose tissue), group mean (Mean 2): n=10; for Fig. 3b (weight of epididymal adipose tissue), group mean (Mean 2) / Fig. 3b (weight of epididymal adipose tissue), Mean Diff. ND vs. treatment (Tukey) / Fig. 3b (weight of epididymal adipose tissue), Mean Diff. Vehicle vs. treatment (Tukey) / Epididymal adipose weight, individual mice (Fig. 3b): in mg (unit assumed); for Fig. 3b (weight of epididymal adipose tissue), Mean Diff. ND vs. treatment (Tukey): ND minus treated; for Fig. 3b (weight of epididymal adipose tissue), Mean Diff. Vehicle vs. treatment (Tukey): Vehicle minus treated. As to the method: as §1, §2

For data set [5] the test system is unchanged. In words: Serum lipid analysis (total cholesterol, triglycerides) in HFD mice. The data set is classed as in vivo, C57BL/6J mice. Set-up: Serum TC (Fig. 4a), individual mouse values / Serum TG (Fig. 4b), individual mouse values / Serum TC (Fig. 4a), Mean Diff. ND vs. treatment (Tukey) / Serum TC (Fig. 4a), Mean Diff. Vehicle vs. treatment (Tukey) / Serum TC (Fig. 4a), group mean (Mean 2) / Mean Diff., ND vs. treated (Fig. 4b) / Mean Diff., Vehicle vs. treated (Fig. 4b) / Mean (Fig. 4b): unit not given here. To be noted: for Serum TC (Fig. 4a), group mean (Mean 2) / Mean (Fig. 4b): n=10; for Serum TC (Fig. 4a), Mean Diff. ND vs. treatment (Tukey): ND minus treated; for Serum TC (Fig. 4a), Mean Diff. Vehicle vs. treatment (Tukey): Vehicle minus treated; for Mean Diff., ND vs. treated (Fig. 4b) / Mean Diff., Vehicle vs. treated (Fig. 4b): Tukey's multiple comparisons test; for Mean (Fig. 4b): group mean. Here is the method:
Fig. 4 Effects of TH analogs on the accumulation of lipids in mice. […] After 3 weeks of injection, serum and liver tissues were collected, and the amount of serum cholesterol (a), serum triglycerides (b), liver cholesterol (c), liver triglycerides (d), and liver total lipids (e) were measured.

In data set [6] the test system is THR-regulated genes and lipid metabolism-related genes in the liver.
[7] abbreviates: HFD mice, i.p., dose not given (0.1 or 1 µmol/kg day), 3 weeks.
[8] abbreviates: HFD mice, 1 μmol/kg day, RT-qPCR, reference gene Rps18.
[9] abbreviates: liver gene expression, 1µmol dose group vs. Vehicle.

What is called Papp is the rate of passage across a membrane or cell layer, normalised by area and donor concentration. For the compound `Cn1c(=O)c2c(ncn2C)n(C)c1=O` [Caffeine], in data set [1] (10 µM on luminal side, 30 min, mean ± standard deviation (n=3)), the Abluminal concentration turned out to be 0.504 ± 0.0551 µM. Besides, the apparent permeability (Papp) at 30 min, 10 µM in data set [1] (rat, 10 μM on luminal side, read-out: apparent permeability (Papp)) was 764 ± 83.5 nm/s.
As for `Cc1cc(OCC(=O)O)cc(C)c1Cc1ccc(O)c(Cc2ccccc2)c1` [GC-24], the “selectivity for THRβ against THRα compared with GC-1” value in data set [2] is given as “ten-fold greater selectivity”.
`N[C@@H](Cc1cc(I)c(Oc2ccc(O)c(I)c2)c(I)c1)C(=O)O` [T3, triiodothyronine]: in data set [3] (0.1 µmol dose group), the “Body weight, 95.00% CI of diff. ND vs. treated” value is on record as -15.17 to -6.458; the “Body weight, Mean Diff. ND vs. treated” value was -10.81; the “Body weight, 95.00% CI of diff. Vehicle vs. treated” value is reported as -0.6376 to 7.800; the “Body weight, Mean Diff. Vehicle vs. treated” value was 3.581. Moreover, in data set [3] (1 µmol dose group), the “Body weight, 95.00% CI of diff. ND vs. treated” value is -10.58 to -1.870; the “Body weight, Mean Diff. ND vs. treated” value is -6.225; the “Body weight, 95.00% CI of diff. Vehicle vs. treated” value is on record as 3.950 to 12.39; the “Body weight, Mean Diff. Vehicle vs. treated” value was determined as 8.169. Besides, in data set [3] (HFD mice, 0.1 µmol dose group), the “Body weight, group mean (Fig. 3a)” value turned out to be 39.33; the “Body weight, individual mice (Fig. 3a)” value was 37.99 and 36.19 and 32.32 and 43.27 and 39.51 and 44.21 and 39.97 and 39.21 and 40.58 and 40.07. For the same compound, in data set [3] (HFD mice, 1 µmol dose group), the “Body weight, group mean (Fig. 3a)” value was found to be 34.74; the “Body weight, individual mice (Fig. 3a)” value is 29.82 and 33.07 and 30.29 and 38.87 and 37.72 and 35.76 and 37.12 and 36.01 and 34.61 and 34.17. The “body weight vs vehicle (in words)” value in data set [3] (HFD mice, i.p. 0.1 µmol/kg day, 3 weeks) is “did not significantly reduce body weight”. Also, the “decrease of body weight compared to vehicle” value in data set [3] (HFD mice, i.p. 1 µmol/kg day, 3 weeks) is on record as ~ 20%. Also, the “Fig. 3b (weight of epididymal adipose tissue), group mean (Mean 2)” value in data set [4] (0.1 µmol, HFD mice) amounted to 1763. Further, in data set [4] (0.1 µmol), the “Fig. 3b (weight of epididymal adipose tissue), Mean Diff. ND vs. treatment (Tukey)” value is -1079 and the “Fig. 3b (weight of epididymal adipose tissue), Mean Diff. Vehicle vs. treatment (Tukey)” value is listed as 1095. Also, the “Fig. 3b (weight of epididymal adipose tissue), group mean (Mean 2)” value in data set [4] (1 µmol, HFD mice) is 1015. In data set [4] (1 µmol), the “Fig. 3b (weight of epididymal adipose tissue), Mean Diff. ND vs. treatment (Tukey)” value is -331.6 and the “Fig. 3b (weight of epididymal adipose tissue), Mean Diff. Vehicle vs. treatment (Tukey)” value came out at 1843. The “Epididymal adipose weight, individual mice (Fig. 3b)” value in data set [4] (HFD mice, 0.1 µmol dose group) was 1857.6 and 1829.3 and 1453.2 and 1516.6 and 740.6 and 1685.1 and 1862.2 and 1976.4 and 2365.6 and 2339.7. For the same compound, the “Epididymal adipose weight, individual mice (Fig. 3b)” value in data set [4] (HFD mice, 1 µmol dose group) was 781.7 and 1090.4 and 983.4 and 966.1 and 975.7 and 1007.4 and 1167.4 and 1184.7 and 1023.2 and 969.5. Also, the “weight of the epididymal adipose tissue vs vehicle” value in data set [4] (setting [7]) is “decreased significantly”. For the same compound, in data set [5] (0.1 µmol, HFD mice), the “Serum TC (Fig. 4a), individual mouse values” is 158.333 and 124.25 and 113.833 and 130.625 and 129.792 and 168.458 and 110 and 105.208 and 104.375 and 153.458; the “Serum TG (Fig. 4b), individual mouse values” was 79.667 and 70.5 and 70.583 and 116.333 and 98 and 97.167 and 90.5 and 123.833 and 87.167 and 118.833; the “Serum TC (Fig. 4a), group mean (Mean 2)” value is recorded as 129.8; the “Mean (Fig. 4b)” value was 95.26. In data set [5] (0.1 µmol), the “Serum TC (Fig. 4a), Mean Diff. ND vs. treatment (Tukey)” value was found to be 49.59 and the “Serum TC (Fig. 4a), Mean Diff. Vehicle vs. treatment (Tukey)” value is given as 120.2. In addition, in data set [5] (1 µmol, HFD mice), the “Serum TC (Fig. 4a), individual mouse values” is 78.333 and 92.5833 and 95.917 and 94.792 and 93.958 and 110.125 and 81.667 and 92.708 and 91.875 and 83.875; the “Serum TG (Fig. 4b), individual mouse values” was 109.75 and 118.917 and 137.25 and 189.75 and 144.75 and 162.25 and 110.583 and 122.25 and 108.917 and 100.583; the “Serum TC (Fig. 4a), group mean (Mean 2)” value turned out to be 91.58; the “Mean (Fig. 4b)” value is 130.5. For the same compound, in data set [5] (1 µmol), the “Serum TC (Fig. 4a), Mean Diff. ND vs. treatment (Tukey)” value is reported as 87.84 and the “Serum TC (Fig. 4a), Mean Diff. Vehicle vs. treatment (Tukey)” value is listed as 158.5. Further, in data set [5] (ND minus 0.1 µmol group), the “Mean Diff., ND vs. treated (Fig. 4b)” value is listed as 51.51. Also, in data set [5] (ND minus 1 µmol group), the “Mean Diff., ND vs. treated (Fig. 4b)” value came out at 16.27. Also, in data set [5] (Vehicle minus 0.1 µmol group), the “Mean Diff., Vehicle vs. treated (Fig. 4b)” value came out at 20.52. In addition, in data set [5] (Vehicle minus 1 µmol group), the “Mean Diff., Vehicle vs. treated (Fig. 4b)” value is given as -14.72. Further, in data set [5] (setting [7]), the “serum triglyceride level vs vehicle” value is on record as “no significant difference”. Moreover, in data set [6] (1µmol, one value per animal), the “Dio1 expression in the liver, individual animal values” is 3.359 and 3.177 and 2.594 and 3.891 and 4.465 and 3.761 and 2.009 and 5.092 and 4.047 and 3.355; the “Ldlr expression in the liver, individual animal values” was 0.07802 and 0.2909 and 0.1661 and 1.188 and 1.197 and 0.8436 and 2.271 and 0.5624 and 0.08829 and 0.1717; the “Me1 expression in the liver, individual animal values” is 1.618 and 1.709 and 1.627 and 3.524 and 2.735 and 3.173 and 4.935 and 5.075 and 3.984 and 2.564; the “Pnpla2 expression in the liver, individual animal values” is 0.3078 and 2.165 and 2.21 and 1.997 and 2.671 and 3.066 and 2.607 and 3.3336 and 0.6308 and 1.108. For the same compound, in data set [6] (1µmol, one value per animal), the “Srebp1c expression in the liver, individual animal values” was 0.06015 and 0.2255 and 0.1838 and 0.1704 and 0.1322 and 0.09864 and 0.3225 and 0.5342 and 0.08549 and 0.1455; the “Thrsp expression in the liver, individual animal values” is 1.539 and 1.364 and 0.6114 and 1.153 and 1.565 and 1.274 and 1.191 and 0.8905 and 1.332 and 1.012. Moreover, in data set [6] (setting [8]), the “liver expression of Dio1 vs vehicle” value is given as “significantly upregulated”, the “liver expression of Ldlr vs vehicle” value is recorded as “not significantly different”, the “liver expression of Me1 vs vehicle” value is “significantly upregulated” and the “liver expression of Srebp1c vs vehicle” value is on record as “significantly lower”. The “liver expression of Thrsp vs vehicle” value in data set [6] (setting [8]) is listed as “no significant difference”. Besides, in data set [6] (setting [9]), the “Pnpla2, Dunn's multiple comparisons test, Mean rank diff. (Vehicle vs. compound)” value is -12.5 and the “Srebp1c, Dunn's multiple comparisons test, Mean rank diff. (Vehicle vs. compound)” value worked out at 17.87. Moreover, the “Pnpla2, Mean rank of treatment group (Mean rank 2)” value in data set [6] (liver gene expression, 1µmol dose group, Vehicle mean rank 8) turned out to be 20.5. Also, the “Srebp1c, Mean rank of treatment group (Mean rank 2)” value in data set [6] (liver gene expression, 1µmol dose group, Vehicle mean rank […]) was 15.8.
